Among the test systems are SN12C; SW-620; LOX IMVI; DU-145; HOP-92; KM12; HT-29; SF-268; OVCAR-4; RPMI-8226; MDA-MB-435; ACHN; Malme-3M; SK-OV-3; NCI-H460; A549; UO-31; HOP-62; HL-60; NCI/ADR-RES.
What all share (assay): NCI anticancer screen, dose series, 48 h

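Dose response: 5 concentrations. Exposure: 48 h. Format: 96-well plates. Endpoint: linear interpolation; highest concentration if not reached. At the GI50, growth is halved.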 Calls of active or inactive are those of the source. Rule as the data show it: active = GI50 up to about 1.1 µM and inactive = higher.

In the case of `CCOC(=O)[C@@H](Cc1ccc(CCl)cc1)NC(C)=O`, the GI50 with SN12C is 24 µM (inactive); in the test on SW-620, 31 µM (inactive); in the test with LOX IMVI, 19 µM (inactive); with DU-145 it was 38.1 µM (inactive); in the test on HOP-92, 23.4 µM (inactive); in the test on KM12 it was 20.2 µM (inactive). Besides, the GI50 with HT-29 was 75.3 µM (inactive); in the test on SF-268 it was 24 µM (inactive); with OVCAR-4, 19.9 µM (inactive); in the test with RPMI-8226, 22.6 µM (inactive); in the test on MDA-MB-435, 19.9 µM (inactive); with ACHN, 20.5 µM (inactive). In addition, the GI50 is 19.2 µM (inactive) in the test on Malme-3M; 98.2 µM (inactive) in the test with SK-OV-3; 19 µM (inactive) in the test with NCI-H460; 97.1 µM (inactive) in the test with A549; 19.2 µM (inactive) in the test with UO-31; 23.9 µM (inactive) in the test on HOP-62. Besides, the GI50 in the test with HL-60 was 27 µM (inactive); with NCI/ADR-RES, 19.9 µM (inactive).
For `COc1cc(/C=C2/SC(c3ccccc3)N(c3cccc(NC(C)=O)c3)C2=O)cc(OC)c1OC` (stereo not given), the GI50 in the test on SN12C was 91.8 µM (inactive); with SW-620 it was 57.1 µM (inactive); in the test with LOX IMVI, 40.3 µM (inactive); in the test on DU-145 it was 92.3 µM (inactive); in the test on HOP-92 it was 85.3 µM (inactive); in the test with KM12, 39.1 µM (inactive). For the same compound, the GI50 in the test on HT-29 is 38.6 µM (inactive); in the test with SF-268 it was 67.9 µM (inactive); with OVCAR-4 it was 66.2 µM (inactive); in the test with RPMI-8226 it was 30.3 µM (inactive); in the test with MDA-MB-435 it was 35 µM (inactive); in the test on ACHN, > 100 µM (inactive). Also, the GI50 is 28.8 µM (inactive) in the test with Malme-3M; 75 µM (inactive) with SK-OV-3; 71.9 µM (inactive) in the test with NCI-H460; 47.4 µM (inactive) with A549; 16.6 µM (inactive) in the test with UO-31; 81.8 µM (inactive) with HOP-62. For the same compound, the GI50 in the test with HL-60 is 33.7 µM (inactive); in the test on NCI/ADR-RES it was 40.7 µM (inactive).
As to `c1ccc(CN2CCC(Nc3ccccc3)(c3nnnn3Cc3ccccc3)CC2)cc1`, the GI50 was 39.7 µM (inactive) in the test with SN12C; 22.2 µM (inactive) in the test with SW-620; 20.1 µM (inactive) with LOX IMVI; 38.4 µM (inactive) in the test on DU-145; 5.37 µM (inactive) in the test on HOP-92; 13.3 µM (inactive) with KM12. In addition, the GI50 was 11.6 µM (inactive) in the test on HT-29; > 100 µM (inactive) in the test on SF-268; 29.6 µM (inactive) in the test on OVCAR-4; 12.9 µM (inactive) in the test with RPMI-8226; 32.9 µM (inactive) in the test on MDA-MB-435; 35 µM (inactive) in the test with ACHN. In addition, the GI50 is 18.5 µM (inactive) in the test with Malme-3M; 70.1 µM (inactive) in the test with SK-OV-3; 15.7 µM (inactive) in the test on NCI-H460; 32.2 µM (inactive) in the test on A549; 6.12 µM (inactive) in the test with UO-31; 45.7 µM (inactive) in the test with HOP-62. Moreover, the GI50 in the test with HL-60 is 11.5 µM (inactive); in the test with NCI/ADR-RES, 24.5 µM (inactive).
As to `O=C(c1ccccc1)C1N=NCC1c1ccc([N+](=O)[O-])cc1` (stereo not given), the GI50 in the test on SN12C is > 100 µM (inactive); with SW-620 it was > 100 µM (inactive); in the test with LOX IMVI, 36.6 µM (inactive); in the test on DU-145, 18.4 µM (inactive); in the test on HOP-92 it was 23.1 µM (inactive); in the test with KM12 it was 45.4 µM (inactive). The GI50 is 36.6 µM (inactive) with HT-29; 40.5 µM (inactive) with SF-268; 49.2 µM (inactive) with OVCAR-4; 29.9 µM (inactive) in the test on RPMI-8226; 49.1 µM (inactive) in the test on MDA-MB-435; 47.1 µM (inactive) in the test with ACHN. Further, the GI50 was 51.4 µM (inactive) with Malme-3M; > 100 µM (inactive) in the test with SK-OV-3; 38.1 µM (inactive) in the test on NCI-H460; 37.2 µM (inactive) in the test with A549; 30.1 µM (inactive) in the test with UO-31; > 100 µM (inactive) with HOP-62. The GI50 in the test on HL-60 was 23.1 µM (inactive); in the test on NCI/ADR-RES, 39.3 µM (inactive).
As for `O=[N+]([O-])C1=Cc2cc(Cl)ccc2OC1c1cccc2ccccc12` (stereo not given), the GI50 is 0.723 µM (active) with SN12C; 0.149 µM (active) in the test with SW-620; 0.29 µM (active) with LOX IMVI; 1.91 µM (inactive) in the test on DU-145; 1.34 µM (inactive) with HOP-92; 1.79 µM (inactive) in the test on KM12. Further, the GI50 in the test on HT-29 was 0.637 µM (active); with SF-268, 1.26 µM (inactive); with OVCAR-4 it was 1.57 µM (inactive); in the test on RPMI-8226, 0.317 µM (active); in the test with MDA-MB-435, 1.44 µM (inactive); in the test with ACHN, 1.52 µM (inactive). The GI50 with Malme-3M is 1.57 µM (inactive); with SK-OV-3, 1.61 µM (inactive); in the test on NCI-H460, 1.7 µM (inactive); in the test with A549 it was 1.7 µM (inactive); with UO-31, 1.26 µM (inactive); in the test on HOP-62 it was 0.871 µM (active). The figures for the GI50 in the test on HL-60 and in the test on NCI/ADR-RES were 3.83 µM (inactive) and 2.07 µM (inactive), respectively.
In the case of `CC[C@H]1C=CCC[C@@]2(C[C@@H]3CC[C@H]4[C@@H](C(=O)OCCCCCCCCCCCCCCCC(=O)N(CCCNC(C)=O)C[C@H](CCNC(C)=O)OC(C)=O)[C@@]5(CCC[C@@H](C)O5)NC(=[N+]34)N2)O1`, the GI50 in the test on SN12C was 2.01 µM (inactive); in the test on SW-620, 1.53 µM (inactive); in the test with LOX IMVI it was 1.64 µM (inactive); in the test with DU-145, 1.57 µM (inactive); in the test on HOP-92, 1.11 µM (active); with KM12, 1.38 µM (inactive). In addition, the GI50 in the test with HT-29 was 1.4 µM (inactive); in the test on SF-268, 1.66 µM (inactive); in the test with OVCAR-4 it was 1.4 µM (inactive); with RPMI-8226, 0.227 µM (active); in the test on MDA-MB-435 it was 1.64 µM (inactive); in the test on ACHN it was 1.89 µM (inactive). The GI50 in the test on Malme-3M is 1.54 µM (inactive); in the test on SK-OV-3 it was 1.74 µM (inactive); with NCI-H460, 1.6 µM (inactive); with A549, 1.88 µM (inactive); in the test on UO-31 it was 1.78 µM (inactive); in the test with HOP-62, 2 µM (inactive). Further, the figures for the GI50 in the test with HL-60 and in the test with NCI/ADR-RES were 1.14 µM (inactive) and > 10 µM (inactive), respectively.
In the case of `COc1cccc2c1C(=O)c1c(O)c3c(c(O)c1C2=O)CC(O)(C(=O)CO)CC3OC1CC(N2CCOCC2C#N)C(O)C(C)O1` (stereo not given), the GI50 in the test on SN12C, in the test with SW-620, in the test with LOX IMVI, in the test with DU-145, with HOP-92 and in the test on KM12 was < 0.0001 µM (active) each time. Further, the GI50 was < 0.0001 µM (active) with HT-29; > 0.01 µM (active) in the test with SF-268; > 0.01 µM (active) with OVCAR-4; < 0.0001 µM (active) in the test on RPMI-8226; < 0.0001 µM (active) with MDA-MB-435; < 0.0001 µM (active) with ACHN. Also, the GI50 in the test on Malme-3M was < 0.0001 µM (active); in the test with SK-OV-3, > 0.01 µM (active); in the test with NCI-H460, < 0.0001 µM (active); with A549 it was < 0.0001 µM (active); in the test with UO-31, > 0.01 µM (active); in the test on HOP-62, < 0.0001 µM (active). The GI50 in the test with HL-60 and in the test on NCI/ADR-RES was < 0.0001 µM (active) in each case.
